# Molecular target: T1, HEK293 transfected with human DDR2 (Homo sapiens, UniProt Q16832)
# T1 construct: expressed in transfected cells; host or cells: HEK293 (PLT460F_(DDR2)-P7-1)
# T1 sequence (Q16832 22-855): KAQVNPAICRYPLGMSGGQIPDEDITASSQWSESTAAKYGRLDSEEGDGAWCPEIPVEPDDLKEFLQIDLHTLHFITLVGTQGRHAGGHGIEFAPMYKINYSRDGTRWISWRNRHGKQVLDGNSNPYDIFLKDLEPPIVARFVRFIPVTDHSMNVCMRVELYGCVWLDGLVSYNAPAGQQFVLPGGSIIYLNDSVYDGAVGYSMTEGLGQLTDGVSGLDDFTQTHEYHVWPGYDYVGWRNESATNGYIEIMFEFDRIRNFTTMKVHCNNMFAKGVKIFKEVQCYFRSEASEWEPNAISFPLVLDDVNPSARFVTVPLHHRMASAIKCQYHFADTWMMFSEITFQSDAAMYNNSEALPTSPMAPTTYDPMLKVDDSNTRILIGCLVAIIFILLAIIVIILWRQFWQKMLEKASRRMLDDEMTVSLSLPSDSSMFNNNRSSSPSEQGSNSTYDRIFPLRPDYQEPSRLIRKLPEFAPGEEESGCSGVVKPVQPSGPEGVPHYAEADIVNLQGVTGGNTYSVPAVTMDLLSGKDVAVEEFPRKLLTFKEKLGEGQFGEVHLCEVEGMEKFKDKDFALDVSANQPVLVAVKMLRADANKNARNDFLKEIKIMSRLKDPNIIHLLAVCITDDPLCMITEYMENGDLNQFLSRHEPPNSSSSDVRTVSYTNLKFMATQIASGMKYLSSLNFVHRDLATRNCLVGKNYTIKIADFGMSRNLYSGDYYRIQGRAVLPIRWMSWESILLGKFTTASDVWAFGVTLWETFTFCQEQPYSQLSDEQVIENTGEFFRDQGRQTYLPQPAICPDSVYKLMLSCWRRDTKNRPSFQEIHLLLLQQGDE
# Test: Phospho-DDR2 cellular assay (collagen II induced DDR2 phosphorylation, ELISA)
# Format: cell-based
# Conditions: HEK293 transfected with human DDR2, 50 μg/ml chicken collagen II, 16 h; read-out: IC50 [p-DDR2]
# Summary of the method: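 Cells seeded 48 h in 10% FBS, serum-starved 8 h, then given compound (5% DMSO) with 50 μg/ml chicken collagen II for 16 h at 37 °C. Lysates captured on anti-DDR2 antibody plates; phospho-DDR2 detected with HRP anti-phosphotyrosine antibody by chemiluminescence.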
row,IC50 [nM],SMILES
1,14,CNC(=O)c1cc(Oc2ccc(CNC(=O)Nc3cc(Cl)cnc3OC)cc2)ccn1 [compound 21]
2,60,Cc1cc(Oc2ccc(CNC(=O)Nc3cc(C(F)(F)F)cnc3Cl)cc2C)ccn1 [compound 30]
3,6.8,CNC(=O)c1cc(Oc2ccc(CNC(=O)Nc3cc(Cl)cnc3OC)cc2C)ccn1 [compound 23]
4,17,COc1ncc(Cl)cc1NC(=O)NCc1ccc(Oc2ccnc(C)c2)c(C)c1 [compound 28]
5,43,CNC(=O)c1cc(Oc2ccc(CNC(=O)Nc3cc(C(F)(F)F)cnc3Cl)cc2C)ccn1 [compound 26]

# Continued, compound first:
row,SMILES,IC50 [nM]
1,CNC(=O)c1cc(Oc2ccc(CNC(=O)Nc3cc(C(F)(F)F)cn(C)c3=O)cc2C)ccn1 [compound 7],12
2,COc1ncc(C)cc1NC(=O)NCc1ccc(Oc2ccncc2)cc1 [compound 18],30
3,Cc1cc(Oc2ccc(CNC(=O)Nc3cc(C(F)(F)F)cn(C)c3=O)cc2C)ccn1 [compound 6],30
4,CNC(=O)c1cc(Oc2ccc(CNC(=O)Nc3cc(C)cnc3OC)cc2)ccn1 [compound 19],24
5,CNC(=O)c1cc(Oc2ccc(CNC(=O)Nc3cc(C(F)(F)F)cn(C)c3=O)cc2)ccn1 [compound 8],28

# Source: patent US20150225369A1, “DDR2 INHIBITORS FOR THE TREATMENT OF OSTEOARTHRITIS” (Merck Patent GmbH, priority 2012, published 2015)
